The test system of data set [1] is HepG2-A16 (human hepatoma) cells. Particulars: for Selectivity index LD50 (HepG2)/IC50 (3D7): HepG2 vs 3D7; for Selectivity index LD50 (HepG2)/IC50 (Dd2): HepG2 vs Dd2; for LD50 HepG2: human, 48 h; for Selectivity index LD50 (HepG2)/IC50 (IPC4912): HepG2 vs IPC4912; for Selectivity index LD50 (HepG2)/IC50 (IPC5202): HepG2 vs IPC5202. On the procedure: (§1) Cytotoxicity was assessed on the mammalian cell lines HepG2-A16 (human hepatoma) and V79 (Chinese hamster lung), using a MTT based assay, as previously described. […] V79 and HepG2 cell lines were incubated for 24 and 48 h, respectively (media changed at 24 h intervals). Absorbance was read at 570 nm on a multi-mode microplate reader (Triad, Dynex Technologies), to produce a log dose-dependence curve. The LD50 value for each compound was estimated by non-linear interpolation of the dose-dependence curve (GraphPad Software).

Data set [2] concerns V79 (Chinese hamster lung) cells. The conditions noted are these: for Selectivity index LD50 (V79)/IC50 (3D7): V79 vs 3D7; for Selectivity index LD50 (V79)/IC50 (Dd2): V79 vs Dd2; for LD50 V79: Chinese hamster, 24 h; for Selectivity index LD50 (V79)/IC50 (IPC4912): V79 vs IPC4912; for Selectivity index LD50 (V79)/IC50 (IPC5202): V79 vs IPC5202. As for the experimental part: as §1

Data set [3] concerns P. falciparum Dd2 (chloroquine-resistant, mefloquine-resistant). Also noted: method as in Lobo et al, 2016. Particulars: ref Lobo et al, 2016, cited from earlier work.
For data set [4], the system named is P. falciparum 3D7 (chloroquine and mefloquine sensitive). Also noted: method as in Lobo et al, 2016. The conditions noted are these: strain 3D7; ref Lobo et al, 2016; read-out: P. falciparum IC50 ± SD, 3D7; cited from earlier work.
The test system of data set [5] is P. falciparum IPC5202 (artemisinin-resistant, K13 R539T). As to the kind of experiment: SYBR Green I assay, IC50, strain IPC5202. The class given is cell-based, Plasmodium falciparum. Particulars: for IC50: Plasmodium falciparum, read-out: P. falciparum IC50 ± SD, IPC5202, strain IPC5202; for Resistance Index RIb = IC50 (IPC5202)/IC50 (3D7): IPC5202 vs 3D7. As for the experimental part: (§2) Staging and parasitaemia were determined by light microscopy of Giemsa-stained thin blood smears. Anti-malarial activity was determined using the SYBR Green I assay, as previously described.

For data set [6], the system named is P. falciparum IPC4912 (artemisinin-resistant, K13 I543T). The data set is described as follows: SYBR Green I assay, IC50, strain IPC4912. The class given is cell-based, Plasmodium falciparum. The conditions noted are these: for IC50: Plasmodium falciparum, read-out: P. falciparum IC50 ± SD, IPC4912; for Resistance Index RIc = IC50 (IPC4912)/IC50 (3D7): IPC4912 vs 3D7. As for the experimental part: Staging and parasitaemia were determined by light microscopy of Giemsa-stained thin blood smears. Anti-malarial activity was determined using the SYBR Green I assay, as previously described. Briefly, early ring stage parasites (> 80% of rings) were challenged with a 1:3 serial dilution of each compound, in concentrations ranging from 10,000–0.169 nM. Fluorescence intensity was measured with a multi-mode microplate reader (Triad, Dynex Technologies), with excitation and emission wavelengths of 485 and 535 nm, respectively, and analysed by nonlinear regression using GraphPad Prism to determine IC50 values.

Data set [7] relates to P. falciparum IPC5202 ring-stage parasites. As to the kind of experiment: Ring-stage survival assay (RSA), IPC5202. The class given is cell-based, Plasmodium falciparum. As for the experimental part: (§3) Ring-stage survival assays (RSA) were carried out as described in [21], with modifications. Parasite cultures were synchronized once, with 5% sorbitol, and in the next reinvasion cycle, twice, with a 6 h interval. […] Then, plates were centrifuged and supernatant replaced by drug-free culture media. After additional incubation during 66 h for ring-stage, and 42 h for mature-stage, susceptibility was assessed microscopically on Giemsa-stained thin blood smears by estimating the percentage of viable parasites that developed into a second generation of rings or trophozoites.

The subject of data set [8] is P. falciparum 3D7 mature-stage parasites. Particulars: typical value, strain not stated; cited from earlier work.
Data set [9] deals with P. falciparum 3D7 (chloroquine and mefloquine sensitive). As to the kind of experiment: SYBR Green I assay, IC50, strain 3D7. The class given is cell-based, Plasmodium falciparum. The conditions noted are these: read-out: P. falciparum IC50 ± SD, 3D7. On the procedure: as §2
For data set [10], the system named is P. falciparum 3D7 ring-stage parasites. As to the kind of experiment: Ring-stage survival assay (RSA), 3D7. It counts as cell-based, Plasmodium falciparum. The conditions noted are these: 6 h pulse, 10 x IC50 (DHA 700 nM), ART-S strain 3D7. As for the experimental part: as §3
The test system of another data set is Plasmodium berghei NK65. As to the kind of experiment: Peters' 4-day suppressive test in Swiss albino mice. Particulars: for in vivo outcome against P. berghei in words: followed to day 10; for inhibition in vivo at 50 mg/kg/day: Plasmodium berghei. It counts as in vivo. As for the experimental part:
(§4) In vivo tests were performed following the Guidelines for Ethical Conduct in The Care and Use of Animals of the Federal University of Rio Grande do Norte—Brazil (CEUA/UFRN/46/2013). Evaluation of anti-malarial activity in vivo was carried out using the Peters’ 4-day suppressive test, with modifications, as previously described. Swiss albino mice were infected with Plasmodium berghei NK65 and randomly allocated to groups of five animals. Animals were treated with 50 mg/kg/day of each of the tested compounds (dissolved in PBS containing 1% DMSO), administrated orally, for four consecutive days. The control group was treated with a solution of PBS/1% DMSO. On days 5 (D5), 7 (D7) and 10 (D10) after parasite inoculation, tail blood smears were Giemsa-stained and examined microscopically to estimate parasitaemia. Acute toxicity testing was carried out to determine adverse effects due to compounds (including weight loss, hair appearance, skin wounds and behavioural changes), and recorded daily.

The next data set concerns Swiss albino mice. The data set is described as follows: Acute toxicity observation in treated mice. The conditions noted are these: 50 mg/kg/day oral, monitored daily. The class given is in vivo. On the procedure: as §4
Setting [11] is: mice, 50 mg/kg/day oral for 4 days, day 5.
The mark [12] stands for this setting: mice, 50 mg/kg/day oral for 4 days.

Each structure is given as a SMILES string. “And” between values parts separate entries of the source, which are not always exact repeats. Equal values may be shown once. “Also recorded” adds a separate entry of the source. Read-outs that look alike come from different tables or passages of the source.

In general, IC50 refers to the concentration that inhibits the measured activity by half.

Consider `O=C1CCC2(CC1)OOC1(O2)C2CC3CC(C2)CC1C3` (centres unmarked) [LC50], for which, in data set [1], the “Selectivity index LD50 (HepG2)/IC50 (3D7)” value is given as 71428.6 and the “Selectivity index LD50 (HepG2)/IC50 (Dd2)” value is on record as 42372.8. In data set [2], the “Selectivity index LD50 (V79)/IC50 (3D7)” value worked out at 71428.6 and the “Selectivity index LD50 (V79)/IC50 (Dd2)” value amounted to 42372.8. Also, the “Resistance Index RIa = IC50 (Dd2)/IC50 (3D7)” value in data set [3] (Dd2 vs 3D7) is given as 1.7. Moreover, the IC50 in [3] (strain Dd2, read-out: P. falciparum IC50 ± SD, Dd2) was 23.6 ± 8.4 nM. Besides, in [4], the IC50 is 14 ± 6.7 nM.

For the compound `C[C@H]1[C@@H](O)O[C@@H]2O[C@@]3(C)CC[C@H]4[C@H](C)CC[C@@H]1[C@@]24OO3` [DHA, dihydroartemisinin, reference compound], the results for the IC50 in [5] and in data set [6] were 6.2 ± 1.6 nM and 3.7 ± 2 nM, respectively. The “LD50 HepG2” value in [1] is 1.0 mM. This compound returned an LD50 V79 in data set [2] greater than 1 mM. Further, in data set [7] (Plasmodium falciparum, 6 h, read-out: Ring-stage survival rate (RSA), percentage of viable parasites, IPC5202), the viability at 0.7 µM was no more than 25%. The “viable mature-stage parasites allowed” value in [8] is given as roughly 1%.

`C1C2CC3CC1CC(C2)C31OOC2(CCC(Nc3nnn[nH]3)CC2)OO1` (centres unmarked) [LC163]: the concentration for half-maximal inhibition (IC50) in [9] (Plasmodium falciparum, 3D7, strain 3D7) is less than 100 nM. In addition, the IC50 in [9] (strain 3D7) stood at 63 ± 0.7 nM. Besides, in data set [5], the “Resistance Index RIb = IC50 (IPC5202)/IC50 (3D7)” value stood at 1.13 and the IC50 is 71.1 ± 1.1 nM. Further, in [6], the “Resistance Index RIc = IC50 (IPC4912)/IC50 (3D7)” value is 0.30 and the IC50 worked out at 18.6 ± 16.9 nM. Besides, in data set [1], the “Selectivity index LD50 (HepG2)/IC50 (3D7)” value is recorded as 15873.0, the “Selectivity index LD50 (HepG2)/IC50 (Dd2)” value is 22988.5, the “Selectivity index LD50 (HepG2)/IC50 (IPC4912)” value is reported as 53763.4 and the “Selectivity index LD50 (HepG2)/IC50 (IPC5202)” value amounted to 14064.7. In addition, the “LD50 HepG2” value in data set [1] stood at 1.0 mM. In data set [2], the LD50 V79 was greater than 1 mM, the “Selectivity index LD50 (V79)/IC50 (3D7)” value is on record as 15873.0, the “Selectivity index LD50 (V79)/IC50 (Dd2)” value was determined as 22988.5 and the “Selectivity index LD50 (V79)/IC50 (IPC4912)” value is listed as 53763.4. Moreover, in data set [2], the “Selectivity index LD50 (V79)/IC50 (IPC5202)” value stood at 14064.7. Also, the “Ring-stage survival rate (RSA), percentage of viable parasites, 3D7” value in [10] was 6.9 ± 1.6% and > 1%. The “Ring-stage survival rate (RSA), percentage of viable parasites, IPC5202” value in data set [7] (6 h pulse, 10 x IC50 (DHA 700 nM), ART-R strain IPC5202) is 2.0 ± 1.9% and > 1%. The “in vivo outcome against P. berghei in words” value with Plasmodium berghei NK65 (50 mg/kg/day oral for 4 days) is given as “recrudescence also occurred on day 10”. For the same compound, in the data set with Plasmodium berghei NK65 (120 h, mice, 50 mg/kg/day oral for 4 days, day 5, vs control group, read-out: % inhibition of parasite growth, Day 5 (converted)), the inhibition in vivo at 50 mg/kg/day was 100%. In addition, the inhibition in vivo at 50 mg/kg/day with Plasmodium berghei NK65 (168 h, mice, 50 mg/kg/day oral for 4 days, day 7, vs control group, read-out: % inhibition of parasite growth, Day 7 (converted)) is 100%. The inhibition in vivo at 50 mg/kg/day with Plasmodium berghei NK65 (240 h, mice, 50 mg/kg/day oral for 4 days, day 10, vs control group, read-out: % inhibition of parasite growth, Day 10 (converted)) is 96.5%. In addition, in the data set on Plasmodium berghei NK65 (setting [11]), the “Mean parasitaemia ± SD, Day 5” value was 0%. In addition, in the data set with Plasmodium berghei NK65 (setting [12]), the “Mean parasitaemia ± SD, Day 7” value came out at 0% and the “Mean parasitaemia ± SD, Day 10” value was 0.2 ± 0.13%.

Consider `CC(C)(C)OC(=O)NCCCCNC(=O)C1CCC2(CC1)OOC1(O2)C2CC3CC(C2)CC1C3` (centres unmarked) [MIS13], for which, in data set [5], the “Resistance Index RIb = IC50 (IPC5202)/IC50 (3D7)” value is 0.23 and the IC50 is 1.7 ± 1.1 nM. Besides, in data set [6], the “Resistance Index RIc = IC50 (IPC4912)/IC50 (3D7)” value is 0.04 and the IC50 is 0.3 ± 0.3 nM. In data set [1], the “Selectivity index LD50 (HepG2)/IC50 (3D7)” value is 44594.6, the “Selectivity index LD50 (HepG2)/IC50 (Dd2)” value came out at 97058.8, the “Selectivity index LD50 (HepG2)/IC50 (IPC4912)” value turned out to be 1100000.0 and the “Selectivity index LD50 (HepG2)/IC50 (IPC5202)” value worked out at 194117.6. In [1], the “LD50 HepG2” value turned out to be 0.3 mM. In [1] (maximum dose of 1 mM), the “decrease in HepG2 survival” value is roughly 30%. In data set [2], the LD50 V79 is greater than 1 mM, the “Selectivity index LD50 (V79)/IC50 (3D7)” value was determined as 135135.1, the “Selectivity index LD50 (V79)/IC50 (Dd2)” value amounted to 294117.6 and the “Selectivity index LD50 (V79)/IC50 (IPC4912)” value is recorded as 3333333.3. In addition, in data set [2], the “Selectivity index LD50 (V79)/IC50 (IPC5202)” value is listed as 588235.2. For the same compound, the “in vivo outcome against P. berghei in words” value in the data set with Plasmodium berghei NK65 (50 mg/kg/day oral for 4 days) was “by day 10 the five mice were cured; also recorded: totally suppressed P. berghei parasitaemia”. Further, the inhibition in vivo at 50 mg/kg/day in the data set with Plasmodium berghei NK65 (po, 120 h, read-out: % inhibition of parasite growth, Day 5) is 92.6%. In addition, the inhibition in vivo at 50 mg/kg/day in the data set with Plasmodium berghei NK65 (po, 168 h, read-out: % inhibition of parasite growth, Day 7) was 98.6%. Further, in the data set on Plasmodium berghei NK65 (po, 240 h, read-out: % inhibition of parasite growth, Day 10), the inhibition in vivo at 50 mg/kg/day was found to be 100%. In addition, the “mice presenting parasitaemia, day 5” value in the data set with Plasmodium berghei NK65 (groups of five mice, 50 mg/kg/day oral, day 5) was 1/5. Besides, the “Mean parasitaemia ± SD, Day 5” value in the data set on Plasmodium berghei NK65 (setting [11]) is listed as 0.11 ± 0.19%. Also, in the data set on Plasmodium berghei NK65 (setting [12]), the “Mean parasitaemia ± SD, Day 7” value was 0.05 ± 0.10% and the “Mean parasitaemia ± SD, Day 10” value is listed as 0%. Moreover, the “adverse effects in vivo” value with Swiss albino mice was “no adverse effects were observed”.

(Values after article PMC5883364 (Malaria Journal, 2018).)
